Laboratory results from PubChem BioAssay (NCI).
Where “and” joins values, the source holds several entries; their conditions need not be identical. Identical values can stand only once.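 Tested at 5 concentrations; 48 h exposure; 96-well plates; endpoints linearly interpolated, else capped at highest concentration. At the GI50, growth is halved. TGI denotes the concentration required for complete inhibition of growth.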

Assays:
Test in all cases: NCI anticancer screen, dose series, 48 h
[1] = system: HS 578T breast
[2] = system: HT29 colon
[3] = system: K-562 leukemia
[4] = system: MOLT-4 leukemia
[5] = system: OVCAR-8 ovarian
[6] = system: SF-539 CNS
[7] = system: SK-MEL-2 melanoma
[8] = system: SK-MEL-28 melanoma
[9] = system: SW-620 colon
[10] = system: UACC-62 melanoma

| Compound | GI50 [1] | TGI [1] | GI50 [2] | TGI [2] | GI50 [3] | TGI [3] | GI50 [4] | TGI [4] | GI50 [5] | TGI [5] | GI50 [6] | TGI [6] | GI50 [7] | TGI [7] | GI50 [8] | TGI [8] | GI50 [9] | TGI [9] | GI50 [10] | TGI [10] |
| --- | --- | --- | --- | --- | --- | --- | --- | --- | --- | --- | --- | --- | --- | --- | --- | --- | --- | --- | --- | --- |
| O=C1CCCCCCCC/C=C/CCC(c2ccco2)O1 (configuration not stated) | 16.2 µM | 77.9 µM | 44.1 µM | > 100 µM | 35.2 µM | > 100 µM | 24.1 µM | 89.6 µM | 88.1 µM | > 100 µM | 60.5 µM | > 100 µM | > 100 µM | > 100 µM | 73.3 µM | > 100 µM | 58.3 µM | > 100 µM | 26.2 µM | > 100 µM |
| c1ccc(C(=NNc2nc3ccccc3o2)c2ccccn2)nc1 | 1.01 µM | > 81.9 µM and 55.5 µM | < 0.0361 µM | > 66.8 µM and 12.7 µM |  | > 100 µM and 22.9 µM | 0.0316 µM | > 56.5 µM | 0.0389 µM |  | 0.112 µM |  | 0.465 µM | 28.8 µM and 27.1 µM | 0.124 µM | 48.6 µM | 0.0524 µM | 39.8 µM and 19.1 µM | 0.0863 µM | 0.756 µM and 0.413 µM |
| CC(C)(C)C(=O)Nc1ccccc1I(=O)=O | > 100 µM | > 100 µM | > 100 µM | > 100 µM | > 100 µM | > 100 µM | > 100 µM | > 100 µM | > 100 µM | > 100 µM | > 100 µM | > 100 µM | > 100 µM | > 100 µM | > 100 µM | > 100 µM | > 100 µM | > 100 µM | > 100 µM | > 100 µM |
| Cc1ccccc1CN1CC2=C(CCN(Cc3ccccc3)C2=O)N2CCN=C12 |  | > 100 µM |  | > 100 µM |  | > 100 µM |  | > 100 µM |  | > 100 µM |  | > 14.1 µM |  | > 81.6 µM |  | > 100 µM |  | > 100 µM |  | > 100 µM |
| CCOC(=O)CCCn1c(SC)nc2cc(-c3ccco3)[nH]c2c1=O | 25.6 µM | > 100 µM | > 100 µM | > 100 µM | > 100 µM | > 100 µM | > 100 µM | > 100 µM | 31.1 µM | > 100 µM | 20.4 µM | 53.2 µM | 36.4 µM | > 100 µM | > 100 µM | > 100 µM | > 100 µM | > 100 µM | 22.5 µM | 68.3 µM |
| C[C@@H]1O[C@@H](O[C@@H]2[C@@H](O)[C@H](OCCc3ccc(O)c(O)c3)O[C@H](COC(=O)/C=C/c3ccc(O)c(O)c3)[C@H]2O)[C@H](O)[C@H](O)[C@H]1O | > 100 µM | > 100 µM |  |  | 36.7 µM | > 100 µM | > 100 µM | > 100 µM |  |  | > 100 µM | > 100 µM | > 100 µM | > 100 µM | > 100 µM | > 100 µM | 18.7 µM | 37.9 µM | > 100 µM | > 100 µM |
| S=c1nc(Oc2ccc(Cl)c(Cl)c2)[nH]c(=S)[nH]1 |  | > 100 µM |  | > 89.7 µM |  | > 31.6 µM |  | > 69.6 µM |  | 97.4 µM |  | > 73.1 µM |  |  |  | > 92.5 µM |  | > 100 µM |  | > 60.3 µM |
